# Data from patent US20030004201A1, “Medicament” (SmithKline Beecham p.l.c., priority 1990, published 2003).
# Structures can show the parent of a compound that is named as a salt.
row,SMILES,melting point
1,"CCCSc1ncc(C[C@H](NC(=O)CCC)C(=O)O)n1Cc1ccccc1Cl [Example 1, 3-[(2-Chlorophenyl)methyl]-2-propylthio-N-butyrylhistidine]",178 to 181 °C
2,"CCCCc1ncc(CC(Cc2ccccc2)C(=O)O)n1Cc1ccccc1Cl (stereo not drawn) (as salt: hydrochloride) [Example 2, 3-[2-n-Butyl-1-{(2-chlorophenyl)methyl}-1H-imidazol-5-yl]-2-benzylpropanoic Acid]",118 to 120 °C
3,"CCCCc1nc2cc(Br)cc(C(=O)O)c2n1Cc1ccccc1Cl [Example 4, 5-Bromo-2-n-butyl-1-(2-chlorophenyl)methyl-1H-benzimidazole-7-carboxylic Acid]",254 to 255 °C
